Legend:
CDK2/Cyclin E = CDK2/Cyclin E (Homo sapiens, UniProt P24941); experiment: CDK2/Cyclin E kinase flashplate assay (33P incorporation into biotinylated Rb peptide); assay type: biochemical; conditions: CDK2/Cyclin E 20 nM, ATP 1 μM, Rb peptide 10 μM, 30 minute at 30° C.
Description: Functional Measurements to Ascertain IC50 Values:
A 96-well streptavidin-coated flashplate is used to assay potency of compounds according to formula (I) against CDK2/Cyclin E kinase. To carry out the assay, biotinylated-Rb peptide substrate (Biotin-[…]-OH) is solubilized at 1 mM in kinase buffer (Hepes 50 mM, NaCl 1 mM, MgCl2 5 mM pH 7.5) as a stock solution conserved at −20° C. in aliquots of 110 μl. The day of the experiment, an aliquot of this solution is thawed and diluted to 14.3 μM in kinase buffer, containing 1 mM dithithreitol (DTT) added in the buffer extemporarily.
70 μl of this solution is added in each well of the flashplate in order to achieve a final concentration of 10 μM (100 μl reactionnal volume). […] 10 μl of each of these solutions (or 10 μl of buffer+DTT for controls) are transferred to the testplate wells in order to achieve 10 μM, 3.33 μM, 1.11 μM, 0.37 μM, 0.12 μM, 0.04 μM and 0.01 μM as final concentrations, 1% DMSO (vol/vol). In each well, 10 μl of a solution of a mix of ^33PγATP/ATP are added in order to achieve 1 μM final concentration and a total of 1 μCi. The kinase reaction is initiated by addition of 10 μl of a solution at 200 nM of CDK2/Cyclin E in kinase buffer+DTT (or buffer+DTT for blanks) in order to achieve 20 nM final concentration. After addition of each reagent, the test-plate is shaked. The plates are incubated 30 minute at 30° C. with a shaking at 650 rpm. At the end of the incubation, the plates are washed 3 times with 300 μl of PBS (without calcium and magnesium) per well. The incorporation of ^33P to the peptide is measured by scintillation counting.

SMILES	IC50 (CDK2/Cyclin E)	melting point
COC(=O)c1ccc2nc(-c3cc(-c4ccncc4)n[nH]c3=O)[nH]c2c1 [Example 1, Methyl 2-(3-oxo-6-pyridin-4-yl-2,3-dihydropyridazin-4-yl)-1H-benzimidazole-5-carboxylate]	124 nM	–
O=c1[nH]nc(-c2ccncc2)cc1-c1nc2ccc(Cl)cc2[nH]1 [Example 5, 4-(6-Chloro-1H-benzimidazol-2-yl)-6-pyridin-4-yl-2H-pyridazin-3-one]	26 nM	–
O=c1[nH]nc(-c2ccncc2)cc1-c1nc2ccc(C(F)(F)F)cc2[nH]1 [Example 6, 4-(6-Trifluoromethyl-1H-benzimidazol-2-yl)-6-pyridin-4-yl-2H-pyridazin-3-one]	214 nM	–
CN1CCN(CCCNC(=O)c2ccc3nc(-c4cc(-c5ccncc5)n[nH]c4=O)[nH]c3c2)CC1 [Example 9, 2-(3-Oxo-6-pyridin-4-yl-2,3-dihydropyridazin-4-yl)-1H-benzimidazole-5-carboxylic acid [3-(4-methylpiperazin-1-yl)propyl]amide]	–	> 30 °C (dec.)
